From patent US20110039947A1, “SURFACE-MODIFIED NANOPARTICLES” (3M Innovative Properties Company, priority 2008, published 2011) come the findings set out here.

This data set is described as follows: Pharmaceutical performance: Aerolizer DPI with Next Generation Pharmaceutical Impactor (NGI). The class given is physicochemical. As to conditions: nominally 2 mg powder, NGI at 60 lpm for 4 seconds, respirable limit 4.5 micrometers. As to the method: Samples of micronized lactose and micronised budesonide powder were tested in addition to testing samples of nanoparticle-modified lactose and nanoparticle-modified budesonide powders. The NGI was coupled with a USP throat (United States Pharmacopeia, USP 24 <601>Aerosols, Metered Dose Inhalers, and Dry Powder Inhalers) and operated at a volumetric flow rate of 60 liters per minute (lpm) for a collection time of four seconds. A suitable coupler was affixed to the USP throat to provide an air-tight seal between the DPI device and the throat. For all testing, the stage cups of the NGI were coated with a surfactant to prevent particle bounce and re-entrainment. The amount of lactose or budesonide collected on each component of the NGI testing apparatus was determined by rinsing the component with a measured volume of an appropriate solvent and subjecting the rinsed material to high pressure liquid chromatography (HPLC) analysis with charged aerosol detection to determine lactose or budesonide concentration. Data that was returned from HPLC analysis was analyzed to determine the average amount of drug collected on the DPI and capsule, the USP throat, and on each component of the NGI per delivered dose. Using the individual component values, the respirable fraction and delivery efficiency were calculated for each powder sample. […]

On to `O.OC[C@H]1O[C@@H](O[C@H]2[C@H](O)[C@@H](O)[C@@H](O)O[C@@H]2CO)[C@H](O)[C@@H](O)[C@H]1O` [Comparative Example C4, α-Lactose monohydrate], for which the “% Delivery Efficiency” value stood at 34% and the “% Respirable Fraction” value amounted to 63%.
